Measured values taken from patent US7612089B2, “Tetrahydroisoquinolines as factor Xa inhibitors” (Portola Pharmaceuticals, Inc., priority 2004, dated 2009).

molecular target: T1, human plasma protein factor Xa (Homo sapiens, UniProt P00742); test: Factor Xa IC50 determination (cleavage of paranitroanilide substrate S-2765); format: biochemical; settings: fXa 1 nM, S2765 100 μM, Tris buffered saline pH 7.4, room temperature
T1 construct: The human plasma protein factor Xa was purchased; purchased Haematologic Technologies (Essex Junction, Vt.); host or cells: human plasma
T1 sequence (P00742 235-488 limits assumed): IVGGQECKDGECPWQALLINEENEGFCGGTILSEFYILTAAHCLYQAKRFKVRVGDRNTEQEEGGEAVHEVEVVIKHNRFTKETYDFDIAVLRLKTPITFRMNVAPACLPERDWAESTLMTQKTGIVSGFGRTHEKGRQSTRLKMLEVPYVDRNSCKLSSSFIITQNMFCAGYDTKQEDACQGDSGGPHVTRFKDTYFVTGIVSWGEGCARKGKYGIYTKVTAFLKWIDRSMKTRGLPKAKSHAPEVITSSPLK
T1 sequence (P00742 41-179 partner limits assumed): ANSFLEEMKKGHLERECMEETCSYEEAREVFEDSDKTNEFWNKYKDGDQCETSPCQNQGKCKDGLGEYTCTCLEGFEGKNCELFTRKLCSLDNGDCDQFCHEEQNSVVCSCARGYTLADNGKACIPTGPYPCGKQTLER
Source text: This example illustrates methods for evaluating the compounds of the invention, along with results obtained for such assays. The in vitro and in vivo Factor Xa isoform activities of the inventive compounds can be determined by various procedures known in the art, such as a test for their ability to inhibit the activity of the Factor Xa isoform. […] The IC50 value is the concentration (in nM) of the compound required to provide 50% inhibition of Factor Xa isoform.
An in vitro assay for detecting and measuring inhibition activity against Factor Xa is as follows:
IC50 and Ki Determinations:
The substrate S-2765 (Z-D-Arg-Gly-Arg-pNA.HCl) was obtained from Diapharma (West Chester, Ohio).
The human plasma protein factor Xa was purchased from Haematologic Technologies (Essex Junction, Vt.).
All assays, which are performed in 96-well microtiter plates, measure proteolytic activity of the enzyme (factor Xa) by following cleavage of paranitroanilide substrate. The assay buffer used for proteolytic assays was Tris buffered saline (20 mM Tris, 150 mM NaCl, 5 mM CaCl2, 0.1% Bovine serum albumin (BSA), 5% Dimethly Sulfoxide (DMSO) pH 7.4). In a 96-well microtiter plate, inhibitor was serially diluted to give a range of concentrations from 0.01 nM to 10 μM (final). Duplicate sets of wells were assayed and control wells without inhibitor were included. Enzyme was added to each well, (fXa concentration=1 nM), the plate was shaken for 5 seconds and then incubated for 5 minutes at room temperature. S2765 was added (100 μM final) and the plate was shaken for 5 seconds (final liquid volume in each well was 200 μl). The degree of substrate hydrolysis was measured at 405 nm on a Thermomax plate reader (Molecular Devices, Sunnyvale, Calif.) for 2 minutes. The initial velocities (mOD/min), for each range of inhibitor concentrations, were fitted to a four parameter equation using Softmax data analysis software. The parameter C, derived from the resulting curve-fit, corresponded to the concentration for half maximal inhibition (IC50).

IC50	SMILES
≤ 100 nM	CN1CCN=C1c1ccc(NC(=O)[C@H]2Cc3ccccc3CN2C(=O)Nc2ccc(Cl)cc2)cc1 [3(R), (3R)-N-[4-(1-methyl-4,5-dihydro-1H-imidazol-2-yl)phenyl]-2N-(4-chlorophenylaminocarbonyl)-1,2,3,4-tetrahydroisoquinoline-3-carboxamide]
≤ 100 nM	CN1CCCN(c2ccc(NC(=O)[C@H]3Cc4ccccc4CN3C(=O)Nc3ccc(Cl)cc3)cc2)C(=O)C1 [Example 46, (3R) N-[4-(4-methyl-2-homopiperazinon-1-yl)phenyl]-2N-(4-chlorophenylaminocarbonyl)-1,2,3,4-tetrahydroisoquinoline-3-carboxamide]
≤ 100 nM	CN1CCCN(c2ccc(NC(=O)C3Cc4cc(O)ccc4CN3C(=O)Nc3ccc(Cl)cc3)cc2)CC1 (stereo not drawn) [Example 40, N-[4-(4-methyl-homopiperazinyl)phenyl]-2N-(4-chlorophenylaminocarbonyl)-6-hydroxy-1,2,3,4-tetrahydroisoquinoline-3-carboxamide]
≤ 100 nM	CN1CCCN(c2ccc(NC(=O)[C@H]3Cc4ccccc4CN3C(=O)Nc3ccc(Cl)cc3)c(F)c2)CC1 [Example 35, (3R) N-[4-(4-methyl-homopiperazinyl)-2-fluorophenyl]-2N-(4-chlorophenylaminocarbonyl)-1,2,3,4-tetrahydroisoquinoline-3-carboxamide]
≤ 100 nM	N=C(c1ccc(NC(=O)C2Cc3ccccc3CN2C(=O)Nc2ccc(Cl)cc2)cc1)N1CCCC1 (stereo not drawn) [Example 4, N-[4-(pyrrolidinylimino)phenyl]-2N-(4-chlorophenylaminocarbonyl)-1,2,3,4-tetrahydroisoquinoline-3-carboxamide]
≤ 100 nM	CN1CCCN(c2ccc(NC(=O)[C@H]3Cc4ccccc4CN3C(=O)Nc3ccc(Cl)s3)cc2)CC1 [Example 49, (3R) N-[4-(4-methyl-homopiperazin-1-yl)phenyl]-2N-[5-(2-chlorothiophene)aminocarbonyl]-1,2,3,4-tetrahydroisoquinoline-3-carboxamide]
≤ 100 nM	CN1CCN=C1c1ccc(NC(=O)C2Cc3ccccc3CN2C(=O)Nc2ccc(Cl)cc2)cc1 (stereo not drawn) [Example 1, N-[4-(1-methyl-4,5-dihydro-1H-imidazol-2-yl)phenyl]-2N-(4-chlorophenylaminocarbonyl)-1,2,3,4-tetrahydroisoquinoline-3-carboxamide]
100 to 500 nM	O=C(NCC1CCN(c2ccncc2)CC1)C1Cc2ccccc2CN1C(=O)Nc1ccc(Cl)cc1 (stereo not drawn) [Example 9, N-[1-(pyridin-4-yl)piperidin-4-yl]methyl-2N-(4-chlorophenylaminocarbonyl)-1,2,3,4-tetrahydroisoquinoline-3-carboxamide]
≤ 100 nM	O=C(Nc1ccc(-n2ccccc2=O)cc1)[C@H]1Cc2ccccc2CN1C(=O)Nc1ccc(Cl)s1 [Example 48, (3R) N-[4-(2-pyridon-1-yl)phenyl]-2N-[5-(2-chlorothiophene)aminocarbonyl]-1,2,3,4-tetrahydroisoquinoline-3-carboxamide]
100 to 500 nM	CN1CCN(c2ccc(NC(=O)[C@H]3Cc4ccccc4CN3C(=O)Nc3ccc(Cl)cc3)cc2)C(=O)C1 [Example 45, (3R) N-[4-(4-methyl-2-piperazinon-1-yl)phenyl]-2N-(4-chlorophenylaminocarbonyl)-1,2,3,4-tetrahydroisoquinoline-3-carboxamide]
≤ 100 nM	O=C(Nc1ccc(N2CCOCC2=O)cc1)C1Cc2ccccc2CN1C(=O)Nc1ccc(Cl)cc1 (stereo not drawn) [Example 14, N-[4-(3-oxo-morpholin-4-yl)phenyl]-2N-(4-chlorophenylaminocarbonyl)-1,2,3,4-tetrahydroisoquinoline-3-carboxamide]
100 to 500 nM	CN1CCCN(c2ccc(NC(=O)C3c4ccccc4CN3C(=O)Nc3ccc(Cl)cc3)cc2)CC1 (stereo not drawn) [Example 30, N-[4-(4-methyl-homopiperazinyl)phenyl]-2N-(4-chlorophenylaminocarbonyl)-2,3-dihydro-1H-isoindole-1-carboxamide]
≤ 100 nM	O=C(Nc1ccc(C(=O)N2CCCC2)cc1)C1Cc2ccccc2CN1C(=O)Nc1ccc(Cl)cc1 (stereo not drawn) [Example 8, N-[4-(pyrrolidinylcarbonyl)phenyl]-2N-(4-chlorophenylaminocarbonyl)-1,2,3,4-tetrahydroisoquinoline-3-carboxamide]
≤ 100 nM	CN1CCN=C1c1ccc(NC(=O)[C@@H]2Cc3ccccc3CN2C(=O)Nc2ccc(Cl)cc2)cc1 [3(S), (3S)-N-[4-(1-methyl-4,5-dihydro-1H-imidazol-2-yl)phenyl]-2N-(4-chlorophenylaminocarbonyl)-1,2,3,4-tetrahydroisoquinoline-3-carboxamide]

The next lines start with the compound.

SMILES	IC50
Cc1cccc2c1CC(C(=O)Nc1ccc(C3=NCCN3C)cc1)N(C(=O)Nc1ccc(Cl)cc1)C2 (stereo not drawn) [Example 18, N-[4-(1-methyl-4,5-dihydro-1H-imidazol-2-yl)phenyl]-2N-(4-chlorophenylaminocarbonyl)-5-methyl-1,2,3,4-tetrahydroisoquinoline-3-carboxamide]	≤ 100 nM
CN(C)C(=N)c1ccc(NC(=O)C2Cc3ccccc3CN2C(=O)Nc2ccc(Cl)cc2)cc1 (stereo not drawn) [Example 5, N-[4-(dimethylaminoimino)phenyl]-2N-(4-chlorophenylaminocarbonyl)-1,2,3,4-tetrahydroisoquinoline-3-carboxamide]	≤ 100 nM
O=C([C@H]1Cc2ccccc2CN1C(=O)Nc1ccc(Cl)cc1)N1CCC(n2ccccc2=O)CC1 [Example 43, (3R) 4-(2-pyridon-1-yl)piperidin-1-yl 2N-(4-chlorophenylaminocarbonyl)-1,2,3,4-tetrahydroisoquinoline-3-carboxamide]	≤ 100 nM
CN(C)C(=N)c1cccc(CNC(=O)C2Cc3ccccc3CN2C(=O)Nc2ccc(Cl)cc2)c1 (stereo not drawn) [Example 6, N-[3-(dimethylaminoimino)benzyl]-2N-(4-chlorophenylaminocarbonyl)-1,2,3,4-tetrahydroisoquinoline-3-carboxamide]	≥ 500 nM
CN(C)Cc1nccn1-c1ccc(NC(=O)C2Cc3ccccc3CN2C(=O)Nc2ccc(Cl)cc2)c(F)c1 (stereo not drawn) [Example 13, N-[4-(2-dimethylaminomethyl-imidazol-1-yl)-2-fluorophenyl]-2N-(4-chlorophenylaminocarbonyl)-1,2,3,4-tetrahydroisoquinoline-3-carboxamide]	≤ 100 nM
COc1cc2c(cc1OC)CN(C(=O)Nc1ccc(Cl)cc1)[C@H](C(=O)Nc1ccc(C(=N)N(C)C)cc1)C2 [Example 23, (3S)-N-[4-(dimethylaminoimino)phenyl]-2N-(4-chlorophenylaminocarbonyl)-6,7-diemthoxy-1,2,3,4-tetrahydroisoquinoline-3-carboxamide]	≥ 500 nM
O=C(Nc1ccc(-n2ccccc2=O)cc1)C1Cc2cc(O)ccc2CN1C(=O)Nc1ccc(Cl)cc1 (stereo not drawn) [Example 39, N-[4-(2-pyridon-1-yl)phenyl]-2N-(4-chlorophenylaminocarbonyl)-6-hydroxy-1,2,3,4-tetrahydroisoquinoline-3-carboxamide]	≤ 100 nM
Cc1cccc2c1CC(C(=O)Nc1ccc(C(=N)N(C)C)cc1)N(C(=O)Nc1ccc(Cl)cc1)C2 (stereo not drawn) [Example 20, N-[4-(dimethylaminoimino)phenyl]-2N-(4-chlorophenylaminocarbonyl)-5-methyl-1,2,3,4-tetrahydroisoquinoline-3-carboxamide]	≤ 100 nM
Cc1cccc2c1CC(C(=O)Nc1ccc(C(=N)N3CCCC3)cc1)N(C(=O)Nc1ccc(Cl)cc1)C2 (stereo not drawn) [Example 19, N-[4-(pyrrolidinylimino)phenyl]-2N-(4-chlorophenylaminocarbonyl)-5-methyl-1,2,3,4-tetrahydroisoquinoline-3-carboxamide]	≤ 100 nM
O=C(Nc1ccc(-n2ccccc2=O)cc1)[C@H]1Cc2ccccc2CN1C(=O)Nc1ccc(Cl)cc1 [Example 36, (3R) N-[4-(2-pyridon-1-yl)phenyl]-2N-(4-chlorophenylaminocarbonyl)-1,2,3,4-tetrahydroisoquinoline-3-carboxamide]	≤ 100 nM
CN1CCN=C1c1ccc(NC(=O)C2Cc3sccc3CN2C(=O)Nc2ccc(Cl)cc2)cc1 (stereo not drawn) [Example 25, N-[4-(1-methyl-4,5-dihydro-1H-imidazol-2-yl)phenyl]-5N-(4-chlorophenylaminocarbonyl)-4,5,6,7-tetrahydro-thieno[3,2-c]pyridine-6-carboxamide]	≤ 100 nM
CN1CCC(N2CCN(C(=O)C3Cc4ccccc4CN3C(=O)Nc3ccc(Cl)cc3)CC2)CC1 (stereo not drawn) [Example 11, 4-(1-methylpiperidin-4-yl)piperazinyl 2N-(4-chlorophenylaminocarbonyl)-1,2,3,4-tetrahydroisoquinoline-3-carboxamide]	≤ 100 nM
O=C(Nc1ccc(N2CCOCC2=O)cc1)C1c2ccccc2CN1C(=O)Nc1ccc(Cl)cc1 (stereo not drawn) [Example 31, N-[4-(3-oxo-morpholin-4-yl)phenyl]-2N-(4-chlorophenylaminocarbonyl)-2,3-dihydro-1H-isoindole-1-carboxamide]	≤ 100 nM
